Assay results from PubChem BioAssay (NCI).
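All cell lines were grown in 96-well plates and treated with compound for 48 hours. The concentration for 50% growth inhibition is given as GI50. The concentration for full growth arrest is given as TGI.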

How the values were obtained:
Assay in all cases: NCI anticancer screen, dose series, 48 h
MOLT-4 leukemia = test system: MOLT-4 leukemia
ACHN renal = test system: ACHN renal
CCRF-CEM leukemia = test system: CCRF-CEM leukemia
EKVX NSCLC = test system: EKVX NSCLC
NCI-H460 lung = test system: NCI-H460 lung
A549 NSCLC = test system: A549 NSCLC
NCI-H226 lung = test system: NCI-H226 lung
K-562 leukemia = test system: K-562 leukemia
HCT-116 colon = test system: HCT-116 colon
KM12 colon = test system: KM12 colon
UACC-257 melanoma = test system: UACC-257 melanoma
RXF 393 renal = test system: RXF 393 renal
DU-145 prostate = test system: DU-145 prostate
786-0 renal = test system: 786-0 renal
SF-295 CNS = test system: SF-295 CNS
SF-539 CNS = test system: SF-539 CNS
HS 578T breast = test system: HS 578T breast
SK-MEL-5 melanoma = test system: SK-MEL-5 melanoma
SNB-19 CNS = test system: SNB-19 CNS
HCC-2998 colon = test system: HCC-2998 colon
NCI-H522 lung = test system: NCI-H522 lung
OVCAR-4 ovarian = test system: OVCAR-4 ovarian
OVCAR-5 ovarian = test system: OVCAR-5 ovarian
SN12C renal = test system: SN12C renal
SW-620 colon = test system: SW-620 colon
U251 CNS = test system: U251 CNS
BT-549 breast = test system: BT-549 breast
UACC-62 melanoma = test system: UACC-62 melanoma
SK-MEL-28 melanoma = test system: SK-MEL-28 melanoma
MCF7 breast = test system: MCF7 breast
NCI-H23 lung = test system: NCI-H23 lung
NCI/ADR-RES ovarian = test system: NCI/ADR-RES ovarian
PC-3 prostate = test system: PC-3 prostate
COLO 205 colon = test system: COLO 205 colon
MALME-3M melanoma = test system: MALME-3M melanoma
HOP-62 NSCLC = test system: HOP-62 NSCLC
HT29 colon = test system: HT29 colon
TK-10 renal = test system: TK-10 renal
M14 melanoma = test system: M14 melanoma
SF-268 CNS = test system: SF-268 CNS
A498 renal = test system: A498 renal
CAKI-1 renal = test system: CAKI-1 renal
UO-31 renal = test system: UO-31 renal
MDA-MB-231 breast = test system: MDA-MB-231 breast
IGROV1 ovarian = test system: IGROV1 ovarian
T-47D breast = test system: T-47D breast
SK-OV-3 ovarian = test system: SK-OV-3 ovarian
MDA-MB-435 = test system: MDA-MB-435
SR leukemia = test system: SR leukemia
HOP-92 NSCLC = test system: HOP-92 NSCLC
OVCAR-3 ovarian = test system: OVCAR-3 ovarian
SNB-75 CNS = test system: SNB-75 CNS
HCT-15 colon = test system: HCT-15 colon
SK-MEL-2 melanoma = test system: SK-MEL-2 melanoma
OVCAR-8 ovarian = test system: OVCAR-8 ovarian
RPMI-8226 leukemia = test system: RPMI-8226 leukemia

SMILES: C#C[C@]1(O)CC[C@H]2[C@@H]3CC=C4c5sc(Nc6ccc(C)cn6)nc5CC[C@]4(C)[C@H]3CC[C@@]21C
- GI50 (MOLT-4 leukemia): 300 nM
- GI50 (ACHN renal): 907 nM
- TGI (ACHN renal): 11200 nM
- GI50 (CCRF-CEM leukemia): 431 nM
- TGI (CCRF-CEM leukemia): 3300 nM
- GI50 (EKVX NSCLC): 994 nM
- TGI (EKVX NSCLC): 9920 nM
- GI50 (NCI-H460 lung): 652 nM
- TGI (NCI-H460 lung): 5290 nM
- GI50 (A549 NSCLC): 1350 nM
- TGI (A549 NSCLC): 12300 nM
- GI50 (NCI-H226 lung): 2160 nM
- TGI (NCI-H226 lung): 8320 nM
- GI50 (K-562 leukemia): 408 nM
- TGI (K-562 leukemia): > 100000 nM
- GI50 (HCT-116 colon): 504 nM
- TGI (HCT-116 colon): 2170 nM
- GI50 (KM12 colon): 1050 nM
- TGI (KM12 colon): 4510 nM
- GI50 (UACC-257 melanoma): 947 nM
- TGI (UACC-257 melanoma): 3350 nM
- GI50 (RXF 393 renal): 53.6 nM
- TGI (RXF 393 renal): 261 nM
- GI50 (DU-145 prostate): 1840 nM
- TGI (DU-145 prostate): 11500 nM
- GI50 (786-0 renal): 198 nM
- TGI (786-0 renal): 610 nM
- GI50 (SF-295 CNS): 184 nM
- TGI (SF-295 CNS): 411 nM
- GI50 (SF-539 CNS): 203 nM
- TGI (SF-539 CNS): 646 nM
- GI50 (HS 578T breast): 265 nM
- TGI (HS 578T breast): 986 nM
- GI50 (SK-MEL-5 melanoma): 1270 nM
- TGI (SK-MEL-5 melanoma): 2580 nM
- GI50 (SNB-19 CNS): 1220 nM
- TGI (SNB-19 CNS): 4830 nM
- GI50 (HCC-2998 colon): 2230 nM
- TGI (HCC-2998 colon): 7260 nM
- GI50 (NCI-H522 lung): 2010 nM
- TGI (NCI-H522 lung): 4580 nM
- GI50 (OVCAR-4 ovarian): 1900 nM
- TGI (OVCAR-4 ovarian): 13800 nM
- GI50 (OVCAR-5 ovarian): 2130 nM
- TGI (OVCAR-5 ovarian): 6760 nM
- GI50 (SN12C renal): 2520 nM
- TGI (SN12C renal): 10500 nM
- GI50 (SW-620 colon): 657 nM
- TGI (SW-620 colon): 2230 nM
- GI50 (U251 CNS): 537 nM
- TGI (U251 CNS): 5770 nM
- GI50 (BT-549 breast): 566 nM
- TGI (BT-549 breast): 3050 nM
- GI50 (UACC-62 melanoma): 363 nM
- TGI (UACC-62 melanoma): 1430 nM
- GI50 (SK-MEL-28 melanoma): 254 nM
- TGI (SK-MEL-28 melanoma): 727 nM
- GI50 (MCF7 breast): 402 nM
- TGI (MCF7 breast): 1920 nM
- GI50 (NCI-H23 lung): 1240 nM
- TGI (NCI-H23 lung): 5160 nM
- GI50 (NCI/ADR-RES ovarian): 1860 nM
- TGI (NCI/ADR-RES ovarian): 6940 nM
- GI50 (PC-3 prostate): 379 nM
- TGI (PC-3 prostate): 5080 nM
- GI50 (COLO 205 colon): 1490 nM
- TGI (COLO 205 colon): 3680 nM
- GI50 (MALME-3M melanoma): 559 nM
- TGI (MALME-3M melanoma): 2420 nM
- GI50 (HOP-62 NSCLC): 1070 nM
- TGI (HOP-62 NSCLC): 4340 nM
- GI50 (HT29 colon): 1200 nM
- TGI (HT29 colon): 3260 nM
- GI50 (TK-10 renal): 2550 nM
- TGI (TK-10 renal): 9900 nM
- GI50 (M14 melanoma): 536 nM
- TGI (M14 melanoma): 2550 nM
- GI50 (SF-268 CNS): 1070 nM
- TGI (SF-268 CNS): 10600 nM
- GI50 (A498 renal): 376 nM
- TGI (A498 renal): 1120 nM
- GI50 (CAKI-1 renal): 597 nM
- TGI (CAKI-1 renal): 4000 nM
- GI50 (UO-31 renal): 378 nM
- TGI (UO-31 renal): 1620 nM
- GI50 (MDA-MB-231 breast): 1280 nM
- TGI (MDA-MB-231 breast): 4000 nM
- GI50 (IGROV1 ovarian): 1750 nM
- TGI (IGROV1 ovarian): 12900 nM
- GI50 (T-47D breast): 1970 nM
- TGI (T-47D breast): 12100 nM
- GI50 (SK-OV-3 ovarian): 717 nM
- TGI (SK-OV-3 ovarian): 3300 nM
- GI50 (MDA-MB-435): 715 nM
- TGI (MDA-MB-435): 3670 nM
- GI50 (SR leukemia): 343 nM
- GI50 (HOP-92 NSCLC): 877 nM
- TGI (HOP-92 NSCLC): 4130 nM
- GI50 (OVCAR-3 ovarian): 1850 nM
- TGI (OVCAR-3 ovarian): 6150 nM
- GI50 (SNB-75 CNS): 332 nM
- TGI (SNB-75 CNS): 3450 nM
- GI50 (HCT-15 colon): 1000 nM
- TGI (HCT-15 colon): 2740 nM
- GI50 (SK-MEL-2 melanoma): 741 nM
- TGI (SK-MEL-2 melanoma): 3230 nM
- GI50 (OVCAR-8 ovarian): 2020 nM
- TGI (OVCAR-8 ovarian): > 27100 nM
- GI50 (RPMI-8226 leukemia): 199 nM
- TGI (RPMI-8226 leukemia): 609 nM
